# Reference: patent publication US8232448B2, “Transgenic mouse with a homozygous mutation in the CMAH gene” (The Regents of the University of California, priority 2005, dated 2012)
# Tests used:
# Caco-2 cells [1] = test: Endocytosis inhibition experiments (Neu5Gc incorporation); format: cell-based, human; details: Caco-2, 2 h pre-treatment with drug, then 3 mM Neu5Gc
# Method: The sonicate was centrifuged at 75×g for 15 min., and the pellet Obtained consisted primarily of nuclei and unbroken cells. […] A portion (20%) of the “total homogenate” fraction was taken for protein quantification and Sia analysis by DMB derivatization and HPLC analysis (as discussed below.) The remainder was centrifuged at 100,000×g for 1 h. The resulting pellet, called the “membrane” fraction, was then resuspended by sonication (15 sec.) in 200 μl of sodium acetate buffer, pH 5.5. The 100,000×g supernatant, called the “soluble” fraction was adjusted to 90% ethanol using absolute ice-cold ethanol, and placed overnight at −20° C. The flocculant precipitate, which represents the “soluble protein” fraction, was washed 3 times with 90%® ice-cold ethanol and then resuspended in 200 μl of water. The supernatant fluid representing the cytosolic low molecular weight (LMW) fraction was dried and brought up in 100 μL with water prior to Sia analysis. All the Sias in these fractions were released with mild acid hydrolysis if necessary and then analyzed by HPLC after DMB derivatization. Protein quantification was performed on the total homogenate, membrane and soluble protein fractions by using the BCA protein assay kit from Pierce (Rockford, Ill.) In some experiments, the resulting data obtained for the Sia bound to the membrane fraction and to the soluble proteins were pooled and presented here as a High Molecular Weight (HMW) fraction. Sialic Acid Release, DMB Derivatization and HPLC Analysis—The bound Sias from the total homogenate, membrane and soluble protein fractions were released using 2M acetic acid hydrolysis, 3 h. at 80° C. The released Sias, or free Sias, contained in the soluble LMW fraction were passed through a Microcon® YM-10 filter (Millipore, Bedford, Mass.) prior to DMB derivatization, which was done according to Hara et al., 1989. […] The eluant was monitored by fluorescence. Quantification of Sias—For all HPLC chromatograms, the quantification of Sias was done by comparison with known quantities of DMB derivatized Neu5Gc and Neu5Ac used as standards and then reported in terms of pmoles of Sia. For total homogenate, membrane and cytosolic protein fractions, this number was expressed per mg of protein. Due to minor sample-to-sample variations in amounts and recoveries, the data in the Figures is presented as percent of Neu5Gc over total Sias, rather than as absolute amounts. Endocytosis Inhibition Experiments—Caco-2 or normal fibroblast cells were split and cultured in alpha-MEM media supplemented respectively with 20% or 15% human serum for 4 days before starting the endocytosis drug inhibition experiments in order to deplete any Neu5Gc derived from FCS. Cells were then pre-treated for 2 h. with the specific inhibitors under the same culture conditions. Fresh media containing the same amount of inhibitor and 3 mM of Neu5Gc was then added to the cells, which were incubated for 16 h or 3 days and finally harvested and fractionated as described above.
# [2] = system: normal human skin fibroblasts; test: Neu5Gc/ManNGc feeding experiment, normal (WT) fibroblasts, DMB-HPLC; format: cell-based; details: for percent of Neu5Gc in membrane-bound glycoconjugates: normal wild-type (WT) fibroblasts, fed 3 mM for 3 days
# Method: (§1) Neu5Gc and ManNGc Feeding Experiment—Neu5Ac, Neu5Gc or ManNGc were dried, dissolved in the appropriate media supplemented with heat-inactivated human serum, sterilized using a Spin-X® (Corning Inc., Corning, N.Y.) and then added to the cells. The pH of the media containing Sia was adjusted to neutrality using sterilized 1M NaOH before starting the feeding experiment. Cells were cultured in the presence of up to 3 mM free Sia or ManNGc for 1 or 3 days at 37° C. At the end of the feeding, cells were washed with cold PBS, harvested either by scraping or with 2 mM EDTA for fibroblasts, and washed again with cold PBS prior to fractionation.
# Fractionation of the Labeled Cells—Washed cell pellets were sonicated into 500 μL of 20 mM sodium phosphate buffer or 20 mM Tris-HCl, pH 7.5, using 4×15 second pulses of a sonicator cell disrupter, model Some Dismembrator (Fisher Scientific, Hampton, N.J.) at a probe setting of 3. The sonicate was centrifuged at 75×g for 15 min., and the pellet Obtained consisted primarily of nuclei and unbroken cells. The pellet contained <5% of the incorporated sialic acid as determined using a radioactive tracer (data not shown.) The supernatant was therefore considered as the “total homogenate” fraction. A portion (20%) of the “total homogenate” fraction was taken for protein quantification and Sia analysis by DMB derivatization and HPLC analysis (as discussed below.) The remainder was centrifuged at 100,000×g for 1 h. The resulting pellet, called the “membrane” fraction, was then resuspended by sonication (15 sec.) in 200 μl of sodium acetate buffer, pH 5.5. The 100,000×g supernatant, called the “soluble” fraction was adjusted to 90% ethanol using absolute ice-cold ethanol, and placed overnight at −20° C. The flocculant precipitate, which represents the “soluble protein” fraction, was washed 3 times with 90%® ice-cold ethanol and then resuspended in 200 μl of water. The supernatant fluid representing the cytosolic low molecular weight (LMW) fraction was dried and brought up in 100 μL with water prior to Sia analysis. All the Sias in these fractions were released with mild acid hydrolysis if necessary and then analyzed by HPLC after DMB derivatization. Protein quantification was performed on the total homogenate, membrane and soluble protein fractions by using the BCA protein assay kit from Pierce (Rockford, Ill.) In some experiments, the resulting data obtained for the Sia bound to the membrane fraction and to the soluble proteins were pooled and presented here as a High Molecular Weight (HMW) fraction.
# Sialic Acid Release, DMB Derivatization and HPLC Analysis—The bound Sias from the total homogenate, membrane and soluble protein fractions were released using 2M acetic acid hydrolysis, 3 h. at 80° C. The released Sias, or free Sias, contained in the soluble LMW fraction were passed through a Microcon® YM-10 filter (Millipore, Bedford, Mass.) prior to DMB derivatization, which was done according to Hara et al., 1989. DMB-Sia derivatives from the different fractions were then analyzed by HPLC using a C18 column (Microsorb MV-TM 100 A, Varian, Palo Alto, Calif.) Isocratic elution was achieved using 7% methanol, 8% acetonitrile in water during 50 min. at 0.9 ml/min flow. The eluant was monitored by fluorescence.
# Quantification of Sias—For all HPLC chromatograms, the quantification of Sias was done by comparison with known quantities of DMB derivatized Neu5Gc and Neu5Ac used as standards and then reported in terms of pmoles of Sia. […]
# [3] = system: human LB EBV-transformed lymphoblasts; test: Neu5Gc/Neu5Ac feeding experiment, human lymphoblasts; format: cell-based
# Method: Cell Culture—Caco-2 cells were propagated in alpha-MEM containing GLUTAMAX™ (Invitrogen, San Diego, Calif.) and a mixture of ribonucleosides and deoxyribonucleosides (Gibco/Invitrogen, San Diego, Calif.) supplemented with 20% FCS. All the fibroblast cell lines and CHO-K1 cells were cultured in the same media supplemented respectively with 15% non-heat inactivated FCS or 10% heat inactivated FCS. Chimpanzee Fred and human LB EBV-transformed lymphoblasts were cultured in RPMI-1640 (Gibco/Invitrogen, San Diego, Calif.) supplemented with 10% heat inactivated FCS or 15% human serum. All of the cultures were maintained at 37° C., 5% CO2 atmosphere. In order to deplete any remaining Neu5Gc from FCS, the cells were split and cultured prior to Neu5Gc feeding experiments for at least 4 days in alpha-MEM supplemented with an adequate percentage of heat-inactivated premium human serum instead of FCS. The cells were then maintained under the same conditions during the whole feeding experiment. The human serum was heat inactivated at 56° C. for 30 min. before use.
# as §1, with “At the end of the feeding, cells were washed with cold PBS, harvested either by scraping or with 2 mM EDTA for fibroblasts, and washed again with cold PBS prior to fractionation.” left out
# Fractionation of the Labeled Cells—Washed cell pellets were sonicated into 500 μL of 20 mM sodium phosphate buffer or 20 mM Tris-HCl, pH 7.5, using 4×15 second pulses of a sonicator cell disrupter, model Some Dismembrator (Fisher Scientific, Hampton, N.J.) at a probe setting of 3. […] The pellet contained <5% of the incorporated sialic acid as determined using a radioactive tracer (data not shown.) The supernatant was therefore considered as the “total homogenate” fraction. A portion (20%) of the “total homogenate” fraction was taken for protein quantification and Sia analysis by DMB derivatization and HPLC analysis (as discussed below.) The remainder was centrifuged at 100,000×g for 1 h. […] All the Sias in these fractions were released with mild acid hydrolysis if necessary and then analyzed by HPLC after DMB derivatization. Protein quantification was performed on the total homogenate, membrane and soluble protein fractions by using the BCA protein assay kit from Pierce (Rockford, Ill.) In some experiments, the resulting data obtained for the Sia bound to the membrane fraction and to the soluble proteins were pooled and presented here as a High Molecular Weight (HMW) fraction. […]
# Caco-2 cells [4] = test: Neu5Gc feeding experiment, Neu5Gc in subcellular fractions by DMB-HPLC; format: cell-based, human; details: fed 3 mM for 3 days
# Method: as §1
# Fractionation of the Labeled Cells—Washed cell pellets were sonicated into 500 μL of 20 mM sodium phosphate buffer or 20 mM Tris-HCl, pH 7.5, using 4×15 second pulses of a sonicator cell disrupter, model Some Dismembrator (Fisher Scientific, Hampton, N.J.) at a probe setting of 3. The sonicate was centrifuged at 75×g for 15 min., and the pellet Obtained consisted primarily of nuclei and unbroken cells. The pellet contained <5% of the incorporated sialic acid as determined using a radioactive tracer (data not shown.) The supernatant was therefore considered as the “total homogenate” fraction. A portion (20%) of the “total homogenate” fraction was taken for protein quantification and Sia analysis by DMB derivatization and HPLC analysis (as discussed below.) The remainder was centrifuged at 100,000×g for 1 h. The resulting pellet, called the “membrane” fraction, was then resuspended by sonication (15 sec.) in 200 μl of sodium acetate buffer, pH 5.5. […] All the Sias in these fractions were released with mild acid hydrolysis if necessary and then analyzed by HPLC after DMB derivatization. Protein quantification was performed on the total homogenate, membrane and soluble protein fractions by using the BCA protein assay kit from Pierce (Rockford, Ill.) In some experiments, the resulting data obtained for the Sia bound to the membrane fraction and to the soluble proteins were pooled and presented here as a High Molecular Weight (HMW) fraction. […]
# chimpanzee lymphoblasts = test: Neu5Gc/Neu5Ac feeding experiment, chimpanzee lymphoblasts; format: cell-based; details: chimpanzee lymphoblasts fed 3 mM for 3 days
# [5] = system: Human neuroblastoma cells; test: Neu5Gc feeding experiment, neuroblastoma cells; format: cell-based; details: fed 3 mM for 3 days
# Method: as §1
# Fractionation of the Labeled Cells—Washed cell pellets were sonicated into 500 μL of 20 mM sodium phosphate buffer or 20 mM Tris-HCl, pH 7.5, using 4×15 second pulses of a sonicator cell disrupter, model Some Dismembrator (Fisher Scientific, Hampton, N.J.) at a probe setting of 3. […] The pellet contained <5% of the incorporated sialic acid as determined using a radioactive tracer (data not shown.) The supernatant was therefore considered as the “total homogenate” fraction. A portion (20%) of the “total homogenate” fraction was taken for protein quantification and Sia analysis by DMB derivatization and HPLC analysis (as discussed below.) The remainder was centrifuged at 100,000×g for 1 h. […]
# Caco-2 cells [6] = test: Competition of free Neu5Ac with free Neu5Gc for incorporation; format: cell-based, human; details: Caco-2, 3 mM Neu5Gc 3 days, in the presence of 15 mM Neu5Ac
# Method: as §1, with “Cells were cultured in the presence of up to 3 mM free Sia or ManNGc for 1 or 3 days at 37° C.” left out
# Fractionation of the Labeled Cells—Washed cell pellets were sonicated into 500 μL of 20 mM sodium phosphate buffer or 20 mM Tris-HCl, pH 7.5, using 4×15 second pulses of a sonicator cell disrupter, model Some Dismembrator (Fisher Scientific, Hampton, N.J.) at a probe setting of 3. […] The pellet contained <5% of the incorporated sialic acid as determined using a radioactive tracer (data not shown.) The supernatant was therefore considered as the “total homogenate” fraction. A portion (20%) of the “total homogenate” fraction was taken for protein quantification and Sia analysis by DMB derivatization and HPLC analysis (as discussed below.) The remainder was centrifuged at 100,000×g for 1 h. […] All the Sias in these fractions were released with mild acid hydrolysis if necessary and then analyzed by HPLC after DMB derivatization. […]
# [7] = human lymphoblasts fed 3 mM for 3 days
# [8] = human normal fibroblasts after 3 mM Neu5Gc feeding, 3 days
smiles,measurement,setting,value
O=c1c(-c2ccc(O)cc2)coc2cc(O)cc(O)c12 [genistein],Neu5Gc incorporation into membrane-bound glycoconjugates in the presence of inhibitor,Caco-2 cells [1],34%
same,incorporation of Neu5Gc in the TH fraction in the presence of inhibitor,Caco-2 cells [1],51%
CN(C)CCCN1c2ccccc2Sc2ccc(Cl)cc21 [chlorpromazine],Neu5Gc incorporation into membrane-bound glycoconjugates in the presence of inhibitor,Caco-2 cells [1],50%
C[C@@H]1[C@H](O)[C@@H](C)/C=C/C=C/CC/C=C/C=C/C=C/C=C/C(O[C@H]2O[C@H](C)[C@@H](O)[C@H](N)[C@@H]2O)CC2O[C@](O)(CC(O)C(O)CCC(O)CC(O)CC(O)CC(=O)O[C@H]1C)CC(O)C2C(=O)O (some centres unmarked) [nystatin],Neu5Gc incorporation into membrane-bound glycoconjugates in the presence of inhibitor,Caco-2 cells [1],44%
same,incorporation of Neu5Gc in the TH fraction in the presence of inhibitor,Caco-2 cells [1],~65%
"O=C(CO)N[C@@H]1C(O)O[C@H](CO)[C@@H](O)[C@@H]1O (some centres unmarked) [ManNGc, N-glycolylmannosamine]",percent of Neu5Gc in membrane-bound glycoconjugates,[2],19%
"O=C(CO)N[C@H]1[C@H]([C@H](O)[C@H](O)CO)OC(O)(C(=O)O)C[C@@H]1O (some centres unmarked) [Neu5Gc, N-glycolylneuraminic acid]","Neu5Gc (percent of total Sia), HMW fraction",[3]; [7],51%
same,"Neu5Gc (percent of total Sia), LMW cytosolic fraction",[3]; [7],80%
same,"Neu5Gc (percent of total Sia), TH fraction",[3]; [7],67%
same,"Neu5Gc (percent of total Sia), cytosolic low molecular weight (LMW) fraction",Caco-2 cells [4],70%
same,"Neu5Gc (percent of total Sia), high molecular weight fraction (HMW)",Caco-2 cells [4],46%
same,"Neu5Gc (percent of total Sia), total homogenate (TH)",Caco-2 cells [4],58%
same,"Neu5Gc (percent of total Sia), TH fraction",chimpanzee lymphoblasts; non-fed baseline 57%,70%
same,"Neu5Gc (percent of total Sia), HMW fraction",chimpanzee lymphoblasts; non-fed baseline 66%,72%
same,"Neu5Gc (percent of total Sia), LMW fraction",chimpanzee lymphoblasts; non-fed baseline 70%,84%
same,"Neu5Gc (percent of total Sia), HMW fraction",[2]; [8],39%
same,"Neu5Gc (percent of total Sia), TH fraction",[2]; [8],28%
same,"Neu5Gc (percent of total Sia), cytosolic LMW fraction",[2]; [8],41%
same,percent of Neu5Gc in membrane-bound glycoconjugates,[2],37%
same,Neu5Gc incorporation efficiency,[5],efficiency comparable to the Caco-2 cells
N=C(N)NC(=O)c1nc(Cl)c(N)nc1N [amiloride],Neu5Gc incorporation into membrane-bound glycoconjugates in the presence of inhibitor,Caco-2 cells [1],10%
"CC(=O)N[C@H]1[C@H]([C@H](O)[C@H](O)CO)OC(O)(C(=O)O)C[C@@H]1O (some centres unmarked) [Neu5Ac, N-acetylneuraminic acid]",Neu5Gc detected in the cells,[3]; human lymphoblasts fed 3 mM Neu5Ac for 3 days,almost no detectable Neu5Gc
same,Neu5Gc (percent of total Sia) in the membrane-bound fraction,Caco-2 cells [6],almost to zero
